Experimental data reported in patent US20120088800A1, “2-(SUBSTITUTED) (ARYLMETHYL, ARYLOXY and ARYLTHIO))-N-(SUBSTITUTED PYRIDIN-2-YL)-2-(SUBSTITUTED ARYL) COMPOUNDS AS SUBTYPE-SELECTIVE MODULATORS OF SPHINGOSINE-1-PHOSPHATE-3 (S1P3) RECEPTORS” (ALLERGAN, INC., priority 2009, published 2012).
Where a name gives a salt, the structure may show the parent alone.

What was measured:
Type in all cases: cell-based
S1P3 = target: T1, S1P3 (Homo sapiens, UniProt Q99500); assay: FLIPR calcium assay, cells expressing S1P3 and a G-protein; conditions: for EC50: fluo-4 calcium signal compared to sphingosine 1-phosphate, antagonist mode; for FLIPR (% Antagonism) S1P3: value in parentheses below the EC50, antagonism of sphingosine 1-phosphate signal
T1 construct: expressed in transfected cells
Description: (§1) Novel compounds having this general structure were synthesized and tested for sphingosine 1-phosphate receptor (S1P) activity using the FLIPR assay. Cells expressing the receptor of interest (S1P1, S1P2 or S1P3) and a G-protein (Gqi5 or G16) are loaded with fluo-4, a calcium sensitive dye. After removal of excess dye by washing, the cells are placed in the FLIPR TETRA instrument. Baseline fluorescence readings are taken prior to addition the compound to be tested. Agonists will trigger the receptor to interact with the G-protein, leading to an increase in intracellular calcium. The increase in intracellular calcium causes an increase in the fluorescence of the cells, due to the presence of fluo-4. This fluorescence increase is recorded by the FLIPR TETRA. After the calcium transient signal has decreased towards baseline, the standard agonist sphingosine 1-phosphate is added. If the test compound is an antagonist, an initial calcium signal will not be generated and the antagonist will prevent the generation of a calcium signal from sphingosine 1-phosphate. The level of fluorescence is compared to that of sphingosine 1-phosphate, and the EC50 or IC50 of the compound determined by curve fitting.

S1P1 = target: T2, S1P1 (Homo sapiens, UniProt P21453); assay: FLIPR calcium assay, cells expressing S1P1 and a G-protein; conditions: fluo-4 calcium signal compared to sphingosine 1-phosphate
T2 construct: expressed in transfected cells
Description: as §1

S1P2 = target: T3, S1P2 (Homo sapiens, UniProt O95136); assay: FLIPR calcium assay, cells expressing S1P2 and a G-protein; conditions: fluo-4 calcium signal compared to sphingosine 1-phosphate
T3 construct: expressed in transfected cells
Description: as §1

T2 sequence (P21453 whole entry, species assumed): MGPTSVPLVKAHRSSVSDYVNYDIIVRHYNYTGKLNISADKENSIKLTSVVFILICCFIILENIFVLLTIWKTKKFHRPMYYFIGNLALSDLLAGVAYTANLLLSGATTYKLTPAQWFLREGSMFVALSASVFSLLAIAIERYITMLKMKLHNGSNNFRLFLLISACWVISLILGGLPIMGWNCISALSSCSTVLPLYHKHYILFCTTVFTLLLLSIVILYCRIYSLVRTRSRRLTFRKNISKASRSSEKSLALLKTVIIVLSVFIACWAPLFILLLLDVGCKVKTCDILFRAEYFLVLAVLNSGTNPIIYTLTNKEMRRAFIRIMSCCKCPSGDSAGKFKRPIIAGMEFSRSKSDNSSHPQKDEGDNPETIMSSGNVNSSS
T3 sequence (O95136 whole entry, species assumed): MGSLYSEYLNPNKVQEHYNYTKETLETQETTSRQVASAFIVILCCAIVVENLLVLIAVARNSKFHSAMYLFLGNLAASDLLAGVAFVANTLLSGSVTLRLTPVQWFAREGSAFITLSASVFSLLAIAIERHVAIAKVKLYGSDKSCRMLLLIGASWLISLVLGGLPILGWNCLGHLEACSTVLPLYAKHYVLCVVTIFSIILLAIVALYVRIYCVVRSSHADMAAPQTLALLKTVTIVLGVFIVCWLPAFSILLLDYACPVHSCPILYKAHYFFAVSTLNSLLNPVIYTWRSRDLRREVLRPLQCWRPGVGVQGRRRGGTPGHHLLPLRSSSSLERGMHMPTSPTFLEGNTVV
T1 sequence (Q99500 whole entry, species assumed): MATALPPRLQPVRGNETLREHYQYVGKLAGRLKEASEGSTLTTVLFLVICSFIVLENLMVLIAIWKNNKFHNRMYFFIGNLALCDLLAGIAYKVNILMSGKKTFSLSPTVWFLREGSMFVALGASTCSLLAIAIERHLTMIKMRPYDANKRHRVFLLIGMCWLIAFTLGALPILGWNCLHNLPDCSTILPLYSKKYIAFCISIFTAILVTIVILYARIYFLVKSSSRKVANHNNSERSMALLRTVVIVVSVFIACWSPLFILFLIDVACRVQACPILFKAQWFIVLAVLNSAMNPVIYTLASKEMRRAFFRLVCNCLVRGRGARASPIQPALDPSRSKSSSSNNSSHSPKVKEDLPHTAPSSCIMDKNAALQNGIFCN

Row | EC50 (S1P3) [nM] | FLIPR (% Antagonism) S1P3 (S1P3) | EC50 (S1P1) [nM] | EC50 (S1P2) [nM] | Compound
1 | 198 | (101) % | > 8300 | > 8300 | O=C(Nc1ccc(Cl)cn1)C(Cc1ccccc1)c1ccccc1 (centres unmarked) [Example 29, N-(5-chloropyridin-2-yl)-2,3-diphenylpropanamide hydrochloride]
2 | 127 | (99) % | > 8300 | > 8300 | O=C(Nc1ccc(Br)cn1)C(Sc1ccc(F)cc1)c1ccc(Cl)cc1 (centres unmarked) [Example 14, N-(5-bromopyridin-2-yl)-2-(4-chlorophenyl)-2-(4-fluorophenylthio)acetamide hydrochloride]
3 | 133 | (97) % | > 8300 | > 8300 | O=C(Nc1ccc(Br)cn1)C(Sc1ccc(Cl)c(Cl)c1)c1ccccc1 (centres unmarked) [Example 18, N-(5-bromopyridin-2-yl)-2-(3,4-dichlorophenylthio)-2-phenylacetamide]
4 | 103 | (97) % | > 8300 | > 8300 | Cl.O=C(Nc1ccc(Cl)cn1)C(Oc1ccc(Br)cc1)c1ccc(Cl)cc1 (centres unmarked) [Example 6, 2-(4-bromophenoxy)-2-(4-chlorophenyl)-N-(5-chloropyridin-2-yl)acetamide hydrochloride]
5 | 166 | (102) % | > 8300 | > 8300 | O=C(Nc1ccc(Cl)cn1)C(Sc1ccc(Cl)cc1)c1ccc(F)cc1 (centres unmarked) [Example 26, 2-(4-chlorophenylthio)-N-(5-chloropyridin-2-yl)-2-(4-fluorophenyl)acetamide]
6 | 201 | (100) % | > 8300 | > 8300 | Cc1nc(NC(=O)C(Cc2ccccc2)c2ccccc2)ccc1Br (centres unmarked) [Example 31, N-(5-bromo-6-methylpyridin-2-yl)-2,3-diphenylpropanamide hydrochloride]
7 | 160 | (101) % | > 8300 | > 8300 | O=C(Nc1ccc(Cl)cn1)C(Sc1ccc(Cl)cc1)c1ccccc1 (centres unmarked) [Example 27, 2-(4-chlorophenylthio)-N-(5-chloropyridin-2-yl)-2-phenylacetamide]
8 | 128 | (99) % | > 8300 | > 8300 | Cc1cc(OC(C(=O)Nc2ccc(Cl)cn2)c2ccc(Cl)cc2)ccc1Cl.Cl (centres unmarked) [Example 1, 2-(4-chloro-3-methylphenoxy)-2-(4-chlorophenyl)-N-(5-chloropyridin-2-yl)acetamide hydrochloride]
9 | 104 | (97) % | > 8300 | > 8300 | O=C(Nc1ccc(Br)cn1)C(Sc1ccc(Cl)cc1)c1ccc(Cl)cc1 (centres unmarked) [Example 22, N-(5-bromopyridin-2-yl)-2-(4-chlorophenyl)-2-(4-chlorophenylthio)acetamide hydrochloride]
10 | 1500 | (52) % | > 8300 | > 8300 | N#Cc1ccc(NC(=O)C(Cc2ccccc2)c2ccccc2)nc1 (centres unmarked) [Example 34, N-(5-cyanopyridin-2-yl)-2,3-diphenylpropanamide hydrochloride]
11 | 310 | (101) % | > 8300 | > 8300 | O=C(Nc1ccc(I)cn1)C(Sc1ccccc1)c1ccccc1 (centres unmarked) [Example 28, N-(5-iodopyridin-2-yl)-2-phenyl-2-(phenylthio)acetamide]
12 | 316 | (97) % | > 8300 | > 8300 | Cl.O=C(Nc1ccc(F)cn1)C(Oc1ccc(Cl)cc1)c1ccc(Cl)cc1 (centres unmarked) [Example 7, 2-(4-chlorophenoxy)-2-(4-chlorophenyl)-N-(5-fluoropyridin-2-yl)acetamide hydrochloride]
13 | 256 | (100) % | > 8300 | > 8300 | O=C(Nc1ccc(Br)cn1)C(Sc1ccccc1)c1ccccc1 (centres unmarked) [Example 10, N-(5-bromopyridin-2-yl)-2-phenyl-2-(phenylthio)acetamide hydrochloride]
14 | 27 | (97) % | > 8300 | > 8300 | Cl.O=C(Nc1ccc(Cl)cn1)C(Oc1ccc(Cl)cc1)c1ccc(Cl)cc1 (centres unmarked) [Example 9, 2-(4-chlorophenoxy)-2-(4-chlorophenyl)-N-(5-chloropyridin-2-yl)acetamide hydrochloride]
15 | 208 | (97) % | > 8300 | > 8300 | O=C(Nc1ccc(Cl)cn1)C(Sc1cccc(Cl)c1)c1ccccc1 (centres unmarked) [Example 21, 2-(3-chlorophenylthio)-N-(5-chloropyridin-2-yl)-2-phenylacetamide hydrochloride]
16 | 376 | (99) % | > 8300 | > 8300 | COc1ccc(SC(C(=O)Nc2ccc(Cl)cn2)c2ccc(Cl)cc2)cc1 (centres unmarked) [Example 12, 2-(4-chlorophenyl)-N-(5-chloropyridin-2-yl)-2-(4-methoxyphenylthio)acetamide hydrochloride]
17 | 256 | (100) % | > 8300 | > 8300 | Cc1ccc(SC(C(=O)Nc2ccc(Br)cn2)c2ccc(Cl)cc2)cc1 (centres unmarked) [Example 16, N-(5-bromopyridin-2-yl)-2-(4-chlorophenyl)-2-(p-tolylthio)acetamide hydrochloride]
18 | 325 | (97) % | > 8300 | > 8300 | Cl.O=C(Nc1ccc(F)cn1)C(Oc1ccc(Br)cc1)c1ccc(Cl)cc1 (centres unmarked) [Example 4, 2-(4-bromophenoxy)-2-(4-chlorophenyl)-N-(5-fluoropyridin-2-yl)acetamide hydrochloride]
19 | 198 | (99) % | > 8300 | > 8300 | O=C(Nc1ccc(Cl)cn1)C(Sc1ccc(F)cc1)c1ccc(Cl)cc1 (centres unmarked) [Example 13, 2-(4-chlorophenyl)-N-(5-chloropyridin-2-yl)-2-(4-fluorophenylthio)acetamide hydrochloride]
20 | 15 | (97) % | > 8300 | > 8300 | Cl.O=C(Nc1ccc(Br)cn1)C(Oc1ccc(Cl)cc1)c1ccc(Cl)cc1 (centres unmarked) [Example 8, N-(5-bromopyridin-2-yl)-2-(4-chlorophenoxy)-2-(4-chlorophenyl)acetamide hydrochloride]
21 | 90 | (97) % | > 8300 | > 8300 | Cl.O=C(Nc1ccc(Br)cn1)C(Oc1ccc(Br)cc1)c1ccc(Cl)cc1 (centres unmarked) [Example 5, 2-(4-bromophenoxy)-N-(5-bromopyridin-2-yl)-2-(4-chlorophenyl)acetamide hydrochloride]
22 | 725 | (99) % | > 8300 | > 8300 | Cc1ccc(NC(=O)C(Cc2ccccc2)c2ccccc2)nc1 (centres unmarked) [Example 32, N-(5-methylpyridin-2-yl)-2,3-diphenylpropanamide hydrochloride]
23 | 106 | (97) % | > 8300 | > 8300 | O=C(Nc1ccc(Cl)cn1)C(Sc1ccc(Cl)c(Cl)c1)c1ccccc1 (centres unmarked) [Example 19, N-(5-chloropyridin-2-yl)-2-(3,4-dichlorophenylthio)-2-phenylacetamide]
